Here are results for eight compounds from PMC7263517 (bioRxiv, 2020).

For one assay, the target named is FluPol (Influenza A virus, UniProt P03430). It counts as biochemical, influenza A/WSN/33 (H1N1) virus.
The target in assay [1] is SARS-CoV-2 nsp7/8/12 complex (Severe acute respiratory syndrome coronavirus 2, UniProt P0DTD1). Briefly: SARS-CoV-2 nsp7/8/12 in vitro activity assay. It is filed as biochemical.
Assay [2] concerns the target A/WSN/33 (H1N1) influenza virus FluPol (Influenza A virus, UniProt P03430). Briefly: biochemical. It counts as biochemical, influenza A/WSN/33 (H1N1) virus.
The test system of a further assay is influenza virus. To be noted: read-out: EC90 influenza virus growth in cell culture; cited from earlier work.

Read-outs that look alike come from different tables or passages of the source.

Chain of A/WSN/33 (H1N1) influenza virus FluPol (P03430 whole entry, looked up): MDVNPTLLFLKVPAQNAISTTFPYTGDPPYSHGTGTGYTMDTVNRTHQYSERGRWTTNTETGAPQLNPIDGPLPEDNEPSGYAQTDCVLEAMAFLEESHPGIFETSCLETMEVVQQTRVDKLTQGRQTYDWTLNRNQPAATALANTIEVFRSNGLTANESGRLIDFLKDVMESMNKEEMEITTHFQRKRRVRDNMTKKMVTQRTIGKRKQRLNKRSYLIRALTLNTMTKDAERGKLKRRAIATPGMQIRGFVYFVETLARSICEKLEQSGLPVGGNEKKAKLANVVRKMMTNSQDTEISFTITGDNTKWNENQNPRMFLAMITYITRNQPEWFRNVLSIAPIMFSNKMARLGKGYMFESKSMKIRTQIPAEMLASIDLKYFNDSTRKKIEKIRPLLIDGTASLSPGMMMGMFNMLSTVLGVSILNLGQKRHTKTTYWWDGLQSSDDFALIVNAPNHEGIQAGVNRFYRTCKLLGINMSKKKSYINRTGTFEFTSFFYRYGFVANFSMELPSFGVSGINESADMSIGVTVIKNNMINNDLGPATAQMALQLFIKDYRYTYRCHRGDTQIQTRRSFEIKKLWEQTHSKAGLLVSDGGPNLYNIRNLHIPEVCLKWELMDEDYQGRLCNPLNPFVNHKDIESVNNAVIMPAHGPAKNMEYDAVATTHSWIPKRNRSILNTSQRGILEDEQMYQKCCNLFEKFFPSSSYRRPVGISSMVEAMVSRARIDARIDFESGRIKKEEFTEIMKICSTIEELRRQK
Chain of FluPol (P03430 whole entry, looked up): as above

For the compound `C[n+]1ccc(C(=O)NCc2ccccc2)cc1` [FAV00A, N-methyl-4-benzylcarbamidopyridinium iodide, reference compound], on FluPol, the “inhibition of FluPol activity by cellular extract” value is reported as “strong, concentration-dependent inhibition”. This compound registered an IC50 in assay [1] of 40.7 mM. Moreover, in assay [2], the “FOLD CHANGE IC50” value is 1 and half-maximal inhibition (IC50) was put at 46.3 mM.

For the compound `NC(=O)c1nc(F)cn([C@@H]2O[C@H](COP(=O)(O)OP(=O)(O)OP(=O)(O)O)[C@@H](O)[C@H]2O)c1=O` [T-705 triphosphate, 6-fluoro-3,4-dihydro-4-[5-O-(hydroxy{[hydroxy(phosphonooxy)phosphinyl]oxy}phosphinyl)-β-d-ribofuranosyl]-3-oxo-2-pyrazinecarboxamide, reference compound], in assay [1] (in vitro, 30 mins, VR17-04 value estimated from the dose-response curve), the “IC50 SARS-CoV-2 nsp7/8/12 RNA synthesis activity” value was “non-inhibitory”. In assay [2], this compound gave an IC50 of 0.011 mM.

Turning to `C[n+]1ccc(C(=O)NCc2ccccc2O)cc1` [VR16-01, 4-{[(2-hydroxyphenyl)methyl]carbamoyl}-1-methylpyridin-1-ium], the “FOLD CHANGE IC50” value in assay [2] is on record as 0.6. For the same compound, in assay [2] (read-out: FLUPOL IC50), the IC50 was 78.2 mM.

With `O=C(NCc1ccccc1O)c1ccncc1` [VR18-01, N-[(2-hydrophenyl)methyl]pyridine-4-carboxamide], the “FOLD CHANGE IC50” value in assay [2] was determined as 1.4. Also, in assay [2] (read-out: FLUPOL IC50), the IC50 was found to be 34.2 mM.

As to `O=C(NCc1cccc(O)c1)c1ccncc1` [VR18-02, N-[(3-hydrophenyl)methyl]pyridine-4-carboxamide], the “FOLD CHANGE IC50” value in assay [2] was determined as 0.5. Also, the IC50 in assay [2] (read-out: FLUPOL IC50) was 94.8 mM.

With `O=C(NCc1ccc(O)cc1)c1ccncc1` [VR18-03, N-[(4-hydrophenyl)methyl]pyridine-4-carboxamide], the “FOLD CHANGE IC50” value in assay [2] is 0.6. In assay [2] (read-out: FLUPOL IC50), the IC50 was 74 mM.

Regarding `O=C(NCc1ccccc1)c1cc[nH]c(=O)c1` [VR18-04, N-benzyl-2-oxo-1,2-dihydropyridine-4-carboxamide], in assay [2], the “FOLD CHANGE IC50” value came out at 1.3 and the IC50 stood at 35.2 mM.

On to `C[n+]1ccc(C(=O)NCc2ccccc2)cc1` [enisamium, 4-(benzylcarbamoyl)-1-methylpyridinium], for which, in the assay on influenza virus, the EC90 is 0.157 to 0.439 mM.
